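Exposure lasted 48 hours, with cells grown in 96-well plates and compounds tested at five concentrations. Here, GI50 denotes the concentration required for 50% inhibition of growth.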 Active and inactive are the calls of the source. Cut-off read from the data, not from the text of the source: active = GI50 up to about 1.1 µM and inactive = higher.
What was measured:
Experiment in all cases: growth of human tumour cells (NCI), 48 h
[1] = tested on: 786-0
[2] = tested on: A498
[3] = tested on: A549
[4] = tested on: ACHN
[5] = tested on: BT-549
[6] = tested on: CAKI-1
[7] = tested on: CCRF-CEM
[8] = tested on: COLO 205
[9] = tested on: DU-145
[10] = tested on: EKVX
[11] = tested on: HCC 2998
[12] = tested on: HCT-116
[13] = tested on: HCT-15
[14] = tested on: HL-60
[15] = tested on: HOP-62
[16] = tested on: HOP-92
[17] = tested on: HT-29
[18] = tested on: Hs-578T
[19] = tested on: IGROV-1
[20] = tested on: K562
[21] = tested on: KM12
[22] = tested on: LOX IMVI
[23] = tested on: M14
[24] = tested on: MCF7
[25] = tested on: MDA-MB-231
[26] = tested on: MDA-MB-435
[27] = tested on: MDA-N
[28] = tested on: MOLT-4
[29] = tested on: NCI-H23
[30] = tested on: NCI-H460
[31] = tested on: NCI-H522
[32] = tested on: NCI/ADR-RES
[33] = tested on: OVCAR-3
[34] = tested on: OVCAR-4
[35] = tested on: OVCAR-5
[36] = tested on: OVCAR-8
[37] = tested on: PC-3
[38] = tested on: RXF 393
[39] = tested on: SF-268
[40] = tested on: SF-295
[41] = tested on: SF-539
[42] = tested on: SK-MEL-28
[43] = tested on: SK-MEL-2
[44] = tested on: SK-MEL-5
[45] = tested on: SN12C
[46] = tested on: SNB-19
[47] = tested on: SNB-75
[48] = tested on: SR
[49] = tested on: SW-620
[50] = tested on: T47D
[51] = tested on: TK-10
[52] = tested on: U-251
[53] = tested on: UACC-257
[54] = tested on: UACC-62
[55] = tested on: UO-31
[56] = tested on: Malme-3M
[57] = tested on: NCI-H226
[58] = tested on: RPMI-8226
[59] = tested on: SK-OV-3

## CN(C(=O)C12C3C4C1C1C2C3C41C(=O)O)C(C)(C)C (stereo not drawn)
[1]
  GI50: > 100 µM (inactive)
[2]
  GI50: > 100 µM (inactive)
[3]
  GI50: > 100 µM (inactive)
[4]
  GI50: > 100 µM (inactive)
[5]
  GI50: > 100 µM (inactive)
[6]
  GI50: > 100 µM (inactive)
[7]
  GI50: > 100 µM (inactive)
[8]
  GI50: > 100 µM (inactive)
[9]
  GI50: > 100 µM (inactive)
[10]
  GI50: > 100 µM (inactive)
[11]
  GI50: > 100 µM (inactive)
[12]
  GI50: > 100 µM (inactive)
[13]
  GI50: > 100 µM
[14]
  GI50: > 100 µM (inactive)
[15]
  GI50: > 100 µM (inactive)
[16]
  GI50: > 100 µM (inactive)
[17]
  GI50: > 100 µM (inactive)
[18]
  GI50: > 100 µM (inactive)
[19]
  GI50: > 100 µM (inactive)
[20]
  GI50: > 100 µM (inactive)
[21]
  GI50: > 100 µM (inactive)
[22]
  GI50: > 100 µM (inactive)
[23]
  GI50: > 100 µM (inactive)
[24]
  GI50: > 100 µM (inactive)
[25]
  GI50: > 100 µM (inactive)
[26]
  GI50: > 100 µM (inactive)
[27]
  GI50: > 100 µM (inactive)
[28]
  GI50: > 100 µM (inactive)
[29]
  GI50: > 100 µM (inactive)
[30]
  GI50: > 100 µM (inactive)
[31]
  GI50: > 100 µM (inactive)
[32]
  GI50: > 100 µM (inactive)
[33]
  GI50: > 100 µM (inactive)
[34]
  GI50: > 100 µM (inactive)
[35]
  GI50: > 100 µM (inactive)
[36]
  GI50: > 100 µM (inactive)
[37]
  GI50: > 100 µM (inactive)
[38]
  GI50: > 100 µM (inactive)
[39]
  GI50: > 100 µM (inactive)
[40]
  GI50: > 100 µM (inactive)
[41]
  GI50: > 100 µM (inactive)
[42]
  GI50: > 100 µM (inactive)
[43]
  GI50: > 100 µM (inactive)
[44]
  GI50: > 100 µM (inactive)
[45]
  GI50: > 100 µM (inactive)
[46]
  GI50: > 100 µM (inactive)
[47]
  GI50: > 100 µM (inactive)
[48]
  GI50: > 100 µM (inactive)
[49]
  GI50: > 100 µM (inactive)
[50]
  GI50: > 100 µM (inactive)
[51]
  GI50: > 100 µM (inactive)
[52]
  GI50: > 100 µM (inactive)
[53]
  GI50: > 100 µM (inactive)
[54]
  GI50: > 100 µM (inactive)
[55]
  GI50: > 100 µM (inactive)

## O=[N+]([O-])c1ccc(Oc2c(Cl)cc(S(=O)(=O)N/C(=N\O)Nc3ccc(Cl)cc3)cc2Cl)cc1
[1]
  GI50: 11.2 µM (inactive)
[2]
  GI50: 10.4 µM (inactive)
[3]
  GI50: 13.6 µM (inactive)
[4]
  GI50: 11.6 µM (inactive)
[5]
  GI50: 12 µM (inactive)
[6]
  GI50: 5.57 µM (inactive)
[7]
  GI50: 8.22 µM (inactive)
[8]
  GI50: 15.1 µM (inactive)
[9]
  GI50: 15.1 µM (inactive)
[10]
  GI50: 11.9 µM (inactive)
[11]
  GI50: 4.1 µM (inactive)
[12]
  GI50: 10.5 µM (inactive)
[13]
  GI50: 11.2 µM
[14]
  GI50: 2.47 µM (inactive)
[15]
  GI50: 15.2 µM (inactive)
[16]
  GI50: 2.31 µM (inactive)
[17]
  GI50: 14.4 µM (inactive)
[18]
  GI50: 14.6 µM (inactive)
[19]
  GI50: 14 µM (inactive)
[20]
  GI50: 13.8 µM (inactive)
[21]
  GI50: 13.5 µM (inactive)
[22]
  GI50: 11.1 µM (inactive)
[23]
  GI50: 12.6 µM (inactive)
[24]
  GI50: 7 µM (inactive)
[25]
  GI50: 11 µM (inactive)
[26]
  GI50: 13.9 µM (inactive)
[27]
  GI50: 12 µM (inactive)
[28]
  GI50: 6.11 µM (inactive)
[56]
  GI50: 14.8 µM (inactive)
[57]
  GI50: 14 µM (inactive)
[29]
  GI50: 9.98 µM (inactive)
[30]
  GI50: 11.6 µM (inactive)
[31]
  GI50: 3.15 µM (inactive)
[32]
  GI50: 12.6 µM (inactive)
[33]
  GI50: 5.87 µM (inactive)
[34]
  GI50: 3.94 µM (inactive)
[35]
  GI50: 7.66 µM (inactive)
[36]
  GI50: 12.6 µM (inactive)
[37]
  GI50: 10.4 µM (inactive)
[58]
  GI50: 5.38 µM (inactive)
[38]
  GI50: 13.5 µM (inactive)
[39]
  GI50: 12.5 µM (inactive)
[40]
  GI50: 13.1 µM (inactive)
[41]
  GI50: 13.5 µM (inactive)
[42]
  GI50: 13.9 µM (inactive)
[43]
  GI50: 10.9 µM (inactive)
[44]
  GI50: 9.44 µM (inactive)
[59]
  GI50: 15.7 µM (inactive)
[45]
  GI50: 12.5 µM (inactive)
[46]
  GI50: 15.2 µM (inactive)
[48]
  GI50: 4.02 µM (inactive)
[49]
  GI50: 13.1 µM (inactive)
[50]
  GI50: 7.98 µM (inactive)
[51]
  GI50: 11.2 µM (inactive)
[52]
  GI50: 13 µM (inactive)
[53]
  GI50: 10.6 µM (inactive)
[54]
  GI50: 11.5 µM (inactive)
[55]
  GI50: 5.79 µM (inactive)
